Test results as given in PubChem BioAssay AID328 (DTP/NCI, 2004).
Several values for one entry are separate records, joined by “and”; a condition that tells them apart may be missing. Equal entries are not always repeated. Toxic doses and inconclusive results are not listed.

Test system: BDF1 mice, P388 leukemia ip, median survival T/C
Assay: NCI In Vivo Anticancer Drug Screen. Data for tumor model P388 Leukemia (intraperitoneal) in B6D2F1 (BDF1) mice
Settings: endpoint: median survival time, higher = longer survival
Method in brief: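 Transplantable tumour in mice; compound vs vehicle dosing; survival scored; ratio of treated to control reported.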

[1] = dose: 100.0 mg/kg/injection, schedule: Q01DX005 (ip), vehicle: saline with Tween-80
[2] = dose: 100.0 mg/kg/injection, schedule: Q01DX009 (ip), vehicle: saline with Tween-80
[3] = dose: 200.0 mg/kg/injection, schedule: Q01DX009 (ip), vehicle: saline with Tween-80
[4] = dose: 400.0 mg/kg/injection, schedule: Q01DX009 (ip), vehicle: saline with Tween-80
[5] = dose: 1.5 mg/kg/injection, schedule: Q01DX009 (ip), vehicle: Klucel (hydroxypropylcellulose) (HPC)
[6] = dose: 3.0 mg/kg/injection, schedule: Q01DX009 (ip), vehicle: Klucel (hydroxypropylcellulose) (HPC)
[7] = dose: 6.0 mg/kg/injection, schedule: Q01DX009 (ip), vehicle: Klucel (hydroxypropylcellulose) (HPC)
[8] = dose: 12.0 mg/kg/injection, schedule: Q01DX009 (ip), vehicle: Klucel (hydroxypropylcellulose) (HPC)
[9] = dose: 25.0 mg/kg/injection, schedule: Q01DX009 (ip), vehicle: saline with Tween-80
[10] = dose: 50.0 mg/kg/injection, schedule: Q01DX009 (ip), vehicle: saline
[11] = dose: 100.0 mg/kg/injection, schedule: Q01DX009 (ip), vehicle: saline
[12] = dose: 100.0 mg/kg/injection, schedule: Q04DX003 (ip), vehicle: saline with Tween-80
[13] = dose: 200.0 mg/kg/injection, schedule: Q04DX003 (ip), vehicle: saline with Tween-80
[14] = dose: 400.0 mg/kg/injection, schedule: Q04DX003 (ip), vehicle: saline with Tween-80
[15] = dose: 25.0 mg/kg/injection, schedule: Q01DX009 (ip), vehicle: water
[16] = dose: 100.0 mg/kg/injection, schedule: Q01DX009 (ip), vehicle: water
[17] = dose: 100.0 mg/kg/injection, schedule: Q04DX003 (ip), vehicle: water
[18] = dose: 100.0 mg/kg/injection, schedule: Q01DX009 (ip), vehicle: Klucel (hydroxypropylcellulose) (HPC)
[19] = dose: 100.0 mg/kg/injection, schedule: Q04DX003 (ip), vehicle: Klucel (hydroxypropylcellulose) (HPC)
[20] = dose: 200.0 mg/kg/injection, schedule: Q01DX009 (ip), vehicle: Klucel (hydroxypropylcellulose) (HPC)
[21] = dose: 200.0 mg/kg/injection, schedule: Q04DX003 (ip), vehicle: Klucel (hydroxypropylcellulose) (HPC)
[22] = dose: 400.0 mg/kg/injection, schedule: Q01DX009 (ip), vehicle: Klucel (hydroxypropylcellulose) (HPC)
[23] = dose: 400.0 mg/kg/injection, schedule: Q04DX003 (ip), vehicle: Klucel (hydroxypropylcellulose) (HPC)
[24] = dose: 50.0 mg/kg/injection, schedule: Q01DX009 (ip), vehicle: saline with Tween-80

`Cc1cc(C)nc(NS(=O)(=O)c2ccc(NC(=O)C(Cl)(Cl)Cl)cc2)n1` was tested, and the T/C [1] was 93 % of control and the T/C (dose: 200.0 mg/kg/injection, schedule: Q01DX005 (ip), vehicle: saline with Tween-80) was 88 % of control.

`CCOC(=O)c1c[nH]n2c(=S)ncnc12` was tested, and the T/C [2] was 100 % of control and 109 % of control, the T/C [3] was 110 % of control and the T/C [4] was 104 % of control.

In the case of `CC1(C)C2CCC([CH2][Hg][Cl])C1C2` (stereo not given), the T/C [5] is reported as 90 % of control, the T/C [6] is reported as 100 % of control and the T/C [7] is reported as 90 % of control. For the same compound, the T/C [8] was 104 % of control and the T/C [9] was 115 % of control.

For `O=[N+]([O-])c1ccc(N2CCN(c3ccc([N+](=O)[O-])c4c3no[n+]4[O-])CC2)c2c1no[n+]2[O-]`, the T/C (dose: 15.0 mg/kg/injection, schedule: Q04DX003 (ip), vehicle: saline with Tween-80) was 111 % of control, the T/C (dose: 30.0 mg/kg/injection, schedule: Q04DX003 (ip), vehicle: saline with Tween-80) was 106 % of control and the T/C (dose: 60.0 mg/kg/injection, schedule: Q04DX003 (ip), vehicle: saline with Tween-80) was 101 % of control.

For `Cc1noc(N)c1[N+](=O)[O-]`, the T/C (dose: 25.0 mg/kg/injection, schedule: Q01DX009 (ip), vehicle: saline) was 95 % of control, the T/C [10] was 109 % of control and the T/C [11] was 109 % of control.

`O=C(O)c1[nH]c(=O)[nH]c(=O)c1F` was tested, and the T/C (dose: 2.5 mg/kg/injection, schedule: Q01DX010 (ip), vehicle: saline) was 152 % of control and the T/C (dose: 10.0 mg/kg/injection, schedule: Q01DX010 (ip), vehicle: saline) was 166 % of control.

In the case of `COC(=O)[C@@H](C)[C@@H](O)[C@@H](C)N`, the T/C [12] is reported as 101 % of control, the T/C [13] is reported as 99 % of control and the T/C [14] is reported as 103 % of control.

For `O=c1[nH]c2ccccc2c(=O)n1C1CCCCC1`, the T/C (dose: 12.5 mg/kg/injection, schedule: Q01DX009 (ip), vehicle: water) was 111 % of control, the T/C (dose: 12.5 mg/kg/injection, schedule: Q04DX003 (ip), vehicle: water) was 96 % of control and the T/C [15] was 111 % of control. For the same compound, the T/C (dose: 25.0 mg/kg/injection, schedule: Q04DX003 (ip), vehicle: water) was 100 % of control, the T/C (dose: 50.0 mg/kg/injection, schedule: Q04DX003 (ip), vehicle: water) was 107 % of control and the T/C [16] was 106 % of control. The T/C [17] was 105 % of control, the T/C (dose: 200.0 mg/kg/injection, schedule: Q01DX009 (ip), vehicle: water) was 101 % of control and the T/C (dose: 400.0 mg/kg/injection, schedule: Q01DX009 (ip), vehicle: water) was 101 % of control.

`CCC(CC)C(O)C(C)C(C)O` (stereo not given) was tested, and the T/C [12] was 100 % of control, the T/C [13] was 100 % of control and the T/C [14] was 100 % of control.

With `Cc1cc(=O)n(Cc2ccco2)c(=S)[nH]1` the T/C (dose: 50.0 mg/kg/injection, schedule: Q01DX005 (ip), vehicle: saline with Tween-80) was 98 % of control and the T/C [1] was 93 % of control.

In the case of `O=[N+]([O-])c1ccc(SNc2ccc(O)cc2)cc1[N+](=O)[O-]`, the T/C [18] is reported as 100 % of control, the T/C [19] is reported as 100 % of control and the T/C [20] is reported as 90 % of control. For the same compound, the T/C [21] was 104 % of control, the T/C [22] was 109 % of control and the T/C [23] was 104 % of control.

With `CC([NH-])C(=O)O.CC([NH-])C(=O)O.CC([NH-])C(=O)O.[Co+3]` (stereo not given) the T/C [15] was 103 % of control, the T/C (dose: 50.0 mg/kg/injection, schedule: Q01DX009 (ip), vehicle: water) was 92 % of control and the T/C [16] was 92 % of control. For the same compound, the T/C [17] was 116 % of control and the T/C (dose: 200.0 mg/kg/injection, schedule: Q04DX003 (ip), vehicle: water) was 90 % of control.

For `c1ccc2c(c1)Sc1ccccc1N2CC1CCCN2CCCCC12` (stereo not given), the T/C (dose: 12.5 mg/kg/injection, schedule: Q01DX001 (ip), vehicle: Klucel (hydroxypropylcellulose) (HPC)) was 106 % of control, the T/C (dose: 25.0 mg/kg/injection, schedule: Q01DX001 (ip), vehicle: Klucel (hydroxypropylcellulose) (HPC)) was 100 % of control and the T/C (dose: 50.0 mg/kg/injection, schedule: Q01DX001 (ip), vehicle: Klucel (hydroxypropylcellulose) (HPC)) was 93 % of control.

For `COc1cccc2c1C(=O)c1c(O)c3c(c(O)c1C2=O)C[C@@](O)(C(C)=O)C[C@@H]3OC1CC(N(Cc2ccccc2)Cc2ccccc2)C(O)C(C)O1` (stereo not given in full), the T/C (dose: 37.5 mg/kg/injection, schedule: Q04DX003 (ip), vehicle: water) was 227 % of control, the T/C (dose: 150.0 mg/kg/injection, schedule: Q04DX003 (ip), vehicle: water) was 100 % of control and the T/C (dose: 300.0 mg/kg/injection, schedule: Q04DX003 (ip), vehicle: water) was 102 % of control.

For `Cc1ccc(C)c(CCN)c1`, the T/C [9] was 122 % of control, the T/C (dose: 25.0 mg/kg/injection, schedule: Q04DX003 (ip), vehicle: saline with Tween-80) was 100 % of control and the T/C [24] was 104 % of control. The T/C (dose: 50.0 mg/kg/injection, schedule: Q04DX003 (ip), vehicle: saline with Tween-80) was 100 % of control and the T/C [12] was 100 % of control.

`CCCCCCCCCCCCO[P+](=O)OCCCCCCCCCCCC` was tested, and the T/C (dose: 200.0 mg/kg/injection, schedule: Q04DX003 (ip), vehicle: saline sonified) was 100 % of control and the T/C (dose: 400.0 mg/kg/injection, schedule: Q04DX003 (ip), vehicle: saline sonified) was 100 % of control.

For `COC(=O)C(Br)C(Br)N1C(=O)c2ccccc2C1=O` (stereo not given), the T/C [18] was 100 % of control, the T/C [19] was 104 % of control and the T/C [20] was 104 % of control. For the same compound, the T/C [21] was 100 % of control, the T/C [22] was 108 % of control and the T/C [23] was 109 % of control.

For `C=C1CCCCC1O` (stereo not given), the T/C [24] was 101 % of control, the T/C [2] was 95 % of control and the T/C [3] was 101 % of control.

With `COc1ccc(/C=C(/C#N)c2ccccc2)cc1` the T/C [9] was 93 % of control, the T/C [24] was 97 % of control and the T/C [2] was 103 % of control. The T/C [3] was 111 % of control.

For `NC(=O)C1(C(N)=O)CCC1`, the T/C [18] was 100 % of control, the T/C [19] was 100 % of control and the T/C [20] was 110 % of control. For the same compound, the T/C [21] was 100 % of control, the T/C [22] was 100 % of control and the T/C [23] was 100 % of control.

`CCOP(=O)(OCC)C(C)OC` (stereo not given) was tested, and the T/C [10] was 100 % of control and 105 % of control, the T/C [11] was 115 % of control and 116 % of control and the T/C (dose: 200.0 mg/kg/injection, schedule: Q01DX009 (ip), vehicle: saline) was 104 % of control and 120 % of control. For the same compound, the T/C (dose: 400.0 mg/kg/injection, schedule: Q01DX009 (ip), vehicle: saline) was 100 % of control.

In the case of `Cc1ccc(NCN2C(=O)NC(c3ccccc3)(c3ccccc3)C2=O)cc1`, the T/C (dose: 100.0 mg/kg/injection, schedule: Q01DX001 (ip), vehicle: saline with Tween-80) is reported as 90 % of control and the T/C (dose: 200.0 mg/kg/injection, schedule: Q01DX001 (ip), vehicle: saline with Tween-80) is reported as 95 % of control.

For `CCc1nnc2c3cc4ccccc4n3cnn12`, the T/C [24] was 86 % of control, the T/C [2] was 87 % of control and the T/C [3] was 103 % of control.

`O=N[O-].O=N[O-].[NH-]CC[NH-].[Pt+2]` was tested, and the T/C (dose: 25.0 mg/kg/injection, schedule: Q04DX003 (ip), vehicle: saline) was 95 % of control, the T/C (dose: 50.0 mg/kg/injection, schedule: Q04DX003 (ip), vehicle: saline) was 108 % of control and the T/C [11] was 90 % of control. The T/C (dose: 100.0 mg/kg/injection, schedule: Q04DX003 (ip), vehicle: saline) was 95 % of control.

In the case of `COc1ccc(-c2cc(C(=O)O)c3cc4ccccc4cc3n2)cc1Br`, the T/C [2] is reported as 100 % of control, the T/C [3] is reported as 100 % of control and the T/C [4] is reported as 97 % of control. The T/C (dose: 600.0 mg/kg/injection, schedule: Q01DX009 (ip), vehicle: saline with Tween-80) was 109 % of control.

For `CC(=O)[O][Pb]([CH2]C(C)C)([CH2]C(C)C)[CH2]C(C)C`, the T/C (dose: 0.75 mg/kg/injection, schedule: Q01DX009 (ip), vehicle: Klucel (hydroxypropylcellulose) (HPC)) was 107 % of control, the T/C [5] was 109 % of control and the T/C [6] was 105 % of control. The T/C [7] was 107 % of control and the T/C [8] was 107 % of control.
